Data on 30 compounds can be found in patent US9309242B2, “Substituted pyrido[2,3-b]pyrazines as FGFR kinase inhibitors” (priority 2011, dated 2016).

The target of one test is FGFR3 (h) (Homo sapiens, UniProt P22607). Description: FGFR3 (enzymatic assay), TR-FRET. The class given is biochemical. The conditions noted are these: read-out: FGFR 3 pIC50 (converted). The source says:
Time-Resolved Fluorescence Resonance Energy Transfer (TR-FRET) signal (ex340 nm.
(In general: TR-FRET usually uses a lanthanide donor and a delayed reading to cut background.)

The target in the next test is KDR (h) (Homo sapiens, UniProt P35968). Put plainly: KDR (VEGFR2) (enzymatic assay), TR-FRET. The class given is biochemical. The note with it: read-out: VEGFR 2 (KDR) pIC50 (converted). In a few lines: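 Read-out is TR-FRET (ex 340 nm, em 620 and 655 nm) in RFU, after an EDTA stop carrying Eu-labelled anti-phosphotyrosine and SA-XL-665 (60 min, RT). The preceding kinase reaction ran 120 min at RT with 150 ng/ml enzyme, 500 nM Btn-Flt3 and 3 μM ATP.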
Chain of KDR (h) (P35968 20-1356): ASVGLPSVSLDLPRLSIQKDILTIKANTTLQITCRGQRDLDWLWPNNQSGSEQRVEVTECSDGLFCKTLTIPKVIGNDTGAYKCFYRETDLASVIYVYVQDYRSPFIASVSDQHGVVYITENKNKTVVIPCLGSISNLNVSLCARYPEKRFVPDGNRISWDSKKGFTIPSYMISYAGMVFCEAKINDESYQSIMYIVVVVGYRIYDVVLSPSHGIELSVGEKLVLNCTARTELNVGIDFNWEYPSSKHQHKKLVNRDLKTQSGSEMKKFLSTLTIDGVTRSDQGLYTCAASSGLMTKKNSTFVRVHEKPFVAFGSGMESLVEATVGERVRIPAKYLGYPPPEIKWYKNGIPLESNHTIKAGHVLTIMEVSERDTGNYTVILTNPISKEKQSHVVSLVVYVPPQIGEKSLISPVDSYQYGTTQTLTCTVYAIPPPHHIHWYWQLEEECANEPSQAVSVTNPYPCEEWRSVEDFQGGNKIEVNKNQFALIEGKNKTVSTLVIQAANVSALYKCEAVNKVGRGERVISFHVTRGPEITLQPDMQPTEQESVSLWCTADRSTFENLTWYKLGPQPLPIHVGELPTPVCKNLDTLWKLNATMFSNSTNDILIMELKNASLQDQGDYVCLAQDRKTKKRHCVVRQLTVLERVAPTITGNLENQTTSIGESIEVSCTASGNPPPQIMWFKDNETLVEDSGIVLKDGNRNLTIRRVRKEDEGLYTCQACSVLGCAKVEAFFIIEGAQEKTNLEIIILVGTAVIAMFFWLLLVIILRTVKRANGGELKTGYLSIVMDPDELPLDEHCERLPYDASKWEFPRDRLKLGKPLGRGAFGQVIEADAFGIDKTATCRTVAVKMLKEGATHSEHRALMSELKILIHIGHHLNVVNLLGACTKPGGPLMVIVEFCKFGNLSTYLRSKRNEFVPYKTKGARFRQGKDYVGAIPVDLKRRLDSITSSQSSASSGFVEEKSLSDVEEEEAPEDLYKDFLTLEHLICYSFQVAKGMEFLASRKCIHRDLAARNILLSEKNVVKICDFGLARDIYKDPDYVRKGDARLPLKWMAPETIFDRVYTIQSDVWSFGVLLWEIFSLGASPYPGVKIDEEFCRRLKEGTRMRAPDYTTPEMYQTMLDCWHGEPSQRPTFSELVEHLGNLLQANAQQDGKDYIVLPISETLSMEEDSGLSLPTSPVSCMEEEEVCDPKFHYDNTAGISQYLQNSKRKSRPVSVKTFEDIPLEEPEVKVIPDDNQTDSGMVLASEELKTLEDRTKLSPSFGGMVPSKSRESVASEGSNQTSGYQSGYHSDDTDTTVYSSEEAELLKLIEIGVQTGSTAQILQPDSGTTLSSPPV

In test [1] the target is T1, Ba/F3-FGFR3-transfected cells (Homo sapiens, UniProt P22607).
T1 construct: BAF3-FGFR3 (MIN IL3) pIC50; other: minus IL3
T1 sequence (P22607 whole entry, change not shown): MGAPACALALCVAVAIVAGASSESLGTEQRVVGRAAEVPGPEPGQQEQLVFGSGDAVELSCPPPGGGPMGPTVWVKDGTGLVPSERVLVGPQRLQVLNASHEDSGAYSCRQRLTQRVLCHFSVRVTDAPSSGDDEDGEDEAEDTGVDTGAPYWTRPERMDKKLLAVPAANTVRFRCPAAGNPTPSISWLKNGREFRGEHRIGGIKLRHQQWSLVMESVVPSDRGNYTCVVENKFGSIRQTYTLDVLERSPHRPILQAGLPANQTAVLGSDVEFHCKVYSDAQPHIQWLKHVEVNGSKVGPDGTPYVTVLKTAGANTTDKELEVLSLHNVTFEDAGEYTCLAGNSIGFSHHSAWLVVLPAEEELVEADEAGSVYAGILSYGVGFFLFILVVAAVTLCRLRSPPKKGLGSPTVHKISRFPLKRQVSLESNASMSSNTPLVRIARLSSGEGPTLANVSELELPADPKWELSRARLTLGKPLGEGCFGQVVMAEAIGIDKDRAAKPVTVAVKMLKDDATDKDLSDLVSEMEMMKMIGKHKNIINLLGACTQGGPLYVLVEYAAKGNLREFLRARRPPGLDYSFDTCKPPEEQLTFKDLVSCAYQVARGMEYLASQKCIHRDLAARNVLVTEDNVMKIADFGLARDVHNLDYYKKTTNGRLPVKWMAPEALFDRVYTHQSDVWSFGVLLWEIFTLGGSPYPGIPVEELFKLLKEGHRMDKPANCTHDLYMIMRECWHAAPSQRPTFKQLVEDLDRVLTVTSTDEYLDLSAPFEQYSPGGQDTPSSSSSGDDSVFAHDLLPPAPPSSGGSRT
Put plainly: Ba/F3-FGFR3 (minus IL3) cellular proliferation assay, Alamar Blue. The class given is cell-based. The method, boiled down:
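Compound dilutions were dispensed first, then 20000 FGFR3-transfected Ba/F3 cells per well in serum-containing RPMI-1640 were added. After 24 h incubation at 37° C, Alamar Blue was applied for 4 h before relative fluorescence units were recorded. In the minus-IL3 format cells grow without cytokine; the other format contains 10 ng/ml murine IL3.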

A value given as a limit tells only on which side of the number the result lay.

Chain of FGFR3 (h) (P22607 23-806): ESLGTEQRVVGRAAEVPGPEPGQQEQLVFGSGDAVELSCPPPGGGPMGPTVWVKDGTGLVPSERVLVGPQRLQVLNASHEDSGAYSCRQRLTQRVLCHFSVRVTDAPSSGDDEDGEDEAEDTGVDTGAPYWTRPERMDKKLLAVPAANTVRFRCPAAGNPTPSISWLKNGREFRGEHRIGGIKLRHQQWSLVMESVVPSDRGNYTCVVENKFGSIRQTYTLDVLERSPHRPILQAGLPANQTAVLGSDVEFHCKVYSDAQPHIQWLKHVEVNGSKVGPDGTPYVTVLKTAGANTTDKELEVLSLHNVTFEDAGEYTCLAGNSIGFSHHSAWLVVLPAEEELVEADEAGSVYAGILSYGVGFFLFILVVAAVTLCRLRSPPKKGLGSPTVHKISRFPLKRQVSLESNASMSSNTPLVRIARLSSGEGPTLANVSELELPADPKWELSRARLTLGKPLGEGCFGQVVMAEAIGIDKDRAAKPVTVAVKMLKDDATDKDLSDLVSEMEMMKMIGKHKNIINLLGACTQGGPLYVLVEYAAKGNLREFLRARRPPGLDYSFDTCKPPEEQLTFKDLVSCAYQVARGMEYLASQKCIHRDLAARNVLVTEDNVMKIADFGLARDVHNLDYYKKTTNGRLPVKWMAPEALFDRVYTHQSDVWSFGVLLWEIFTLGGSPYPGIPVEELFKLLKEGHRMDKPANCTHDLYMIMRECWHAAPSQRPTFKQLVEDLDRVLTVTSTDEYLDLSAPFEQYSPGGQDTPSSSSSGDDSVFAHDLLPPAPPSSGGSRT

In the case of `COc1cc(OC)c(F)c(N(CCN(C2COC2)C2COC2)c2ccc3ncc(-c4cnn(C)c4)nc3n2)c1` [Compound 222], the IC50 at FGFR3 (h) was 3.89 nM; at KDR (h) it was 40.7 nM. In addition, the “BAF3-FGFR3 (MIN IL3) pIC50” value in test [1] was approximately 7.19.
Take `COc1cc(OC)c(F)c(N(Cc2nc(Br)c[nH]2)c2ccc3ncc(-c4cnn(C)c4)nc3n2)c1` [Compound 238]: the IC50 on FGFR3 (h) was 1.17 nM; on KDR (h), 11.2 nM. In test [1], the “BAF3-FGFR3 (MIN IL3) pIC50” value is approximately 8.45.
Regarding `COc1cc(OC)c(F)c(N(CCNC(C)=O)c2ccc3ncc(-c4cnn(C)c4)nc3n2)c1` [Compound 242], the results for the IC50 on FGFR3 (h) and on KDR (h) were 1.86 nM and 28.2 nM, respectively. Moreover, in test [1], the “BAF3-FGFR3 (MIN IL3) pIC50” value was approximately 8.11.
Turning to `COc1cc(/N=c2\ccc3ncc(-c4cnn(C)c4)nc3n2CCN2CCOCC2)c(F)c(OC)c1` [Compound 148], the IC50 on FGFR3 (h) was 1.26 nM; on KDR (h), 5.01 nM. For the same compound, the “BAF3-FGFR3 (MIN IL3) pIC50” value in test [1] is 7.21.
Take `COc1cc(OC)c(F)c(N(CC2CCC(=O)N2C)c2ccc3ncc(-c4cnn(C)c4)nc3n2)c1` (stereo not drawn) [Compound 159]: the IC50 was 5.89 nM on FGFR3 (h) and 83.2 nM at KDR (h). The “BAF3-FGFR3 (MIN IL3) pIC50” value in test [1] is listed as 6.30.
`COc1cc(OC)cc(N(Cc2ncn(CCO)n2)c2ccc3ncc(-c4cnn(C)c4)nc3n2)c1` [Compound 205]: the IC50 on FGFR3 (h) is 14.5 nM; on KDR (h) it was 38.9 nM. Further, the “BAF3-FGFR3 (MIN IL3) pIC50” value in test [1] is 6.20.
On to `COc1cc(OC)c(F)c(N(Cc2ncc[nH]2)c2ccc3ncc(-c4cn[nH]c4)nc3n2)c1` [Compound 190], for which the values for the IC50 on FGFR3 (h) and at KDR (h) were 1.23 nM and 7.94 nM, respectively. Moreover, in test [1], the “BAF3-FGFR3 (MIN IL3) pIC50” value was approximately 8.15.
`COc1cc(OC)c(F)c(N(CCN2CCCC2=O)c2ccc3ncc(-c4cnn(C)c4)nc3n2)c1` [Compound 157]: the IC50 on FGFR3 (h) is 5.62 nM; at KDR (h), 46.8 nM. Further, the “BAF3-FGFR3 (MIN IL3) pIC50” value in test [1] is recorded as approximately 6.66.
Consider `COc1cc(/N=c2\ccc3ncc(-c4cnn(C)c4)nc3n2CC2CCCOC2)cc(OC)c1` (stereo not drawn) [Compound 165], for which the IC50 is 1.12 nM on FGFR3 (h) and 6.31 nM on KDR (h). In addition, the “BAF3-FGFR3 (MIN IL3) pIC50” value in test [1] came out at 7.32.
Regarding `COc1cc(OC)c(F)c(N(CC(C)(C)O)c2ccc3ncc(-c4cnn(CC(C)(C)O)c4)nc3n2)c1` (single isomer, unassigned) [Compound 208], the figures for the IC50 on FGFR3 (h) and at KDR (h) were 3.72 nM and 77.6 nM, respectively. For the same compound, the “BAF3-FGFR3 (MIN IL3) pIC50” value in test [1] was approximately 7.15.
In the case of `COc1cc(OC)c(F)c(N(CCN(C2COC2)C2COC2)c2ccc3ncc(-c4cnn(C)c4)nc3n2)c1F` (single isomer, unassigned) [Compound 163], the IC50 is 2.63 nM on FGFR3 (h) and 8.51 nM at KDR (h). Moreover, the “BAF3-FGFR3 (MIN IL3) pIC50” value in test [1] turned out to be 7.34.
Turning to `COc1cc(OC)cc(N(Cc2nn[nH]n2)c2ccc3ncc(-c4cnn(C)c4)nc3n2)c1` [Compound 197], the IC50 was 14.5 nM on FGFR3 (h) and 145 nM on KDR (h). Moreover, the “BAF3-FGFR3 (MIN IL3) pIC50” value in test [1] was less than 5.
As to `COc1cc(OC)c(F)c(N(Cc2ncc[nH]2)c2ccc3ncc(-c4cnn(C(CO)CCl)c4)nc3n2)c1` (stereo not drawn) [Compound 209], the IC50 is 1.32 nM at FGFR3 (h) and 7.59 nM at KDR (h). For the same compound, the “BAF3-FGFR3 (MIN IL3) pIC50” value in test [1] was found to be 8.25.
For `COc1ccc(Cl)c(N(CC2CCC(=O)N2)c2ccc3ncc(-c4cnn(C)c4)nc3n2)c1Cl` (stereo not drawn) [Compound 93], the values for the IC50 on FGFR3 (h) and on KDR (h) were 77.6 nM and more than 1000 nM, respectively. Moreover, the “BAF3-FGFR3 (MIN IL3) pIC50” value in test [1] is on record as approximately 5.59.
`COc1cc(OC)c(F)c(N(CC(=O)c2cnn(C)c2)c2ccc3ncc(-c4cnn(C)c4)nc3n2)c1` [Compound 225]: the IC50 at FGFR3 (h) was 7.76 nM; at KDR (h), 200 nM. Moreover, the “BAF3-FGFR3 (MIN IL3) pIC50” value in test [1] came out at 6.29.
The like results for `COc1cc(OC)c(F)c(N(Cc2cc(C)on2)c2ccc3ncc(-c4cnn(C)c4)nc3n2)c1` [Compound 180] were, in that order, 1.07 nM, 9.55 nM and 7.36.
As for `COc1cc(/N=c2\ccc3ncc(-c4cnn(C)c4)nc3n2Cc2cn[nH]c2)c(F)c(OC)c1` [Compound 155], the results for the IC50 at FGFR3 (h) and at KDR (h) were 0.407 nM and 2.45 nM, respectively. Besides, the “BAF3-FGFR3 (MIN IL3) pIC50” value in test [1] is 8.07.
Consider `COc1cc(OC)c(F)c(N(CCNC2COC2)c2ccc3ncc(-c4cnn(C)c4)nc3n2)c1` [Compound 221], for which the IC50 was 0.891 nM on FGFR3 (h) and approximately 29.5 nM on KDR (h). The “BAF3-FGFR3 (MIN IL3) pIC50” value in test [1] was approximately 7.67.
With `COc1cc(/N=c2\ccc3ncc(-c4cnn(C)c4)nc3n2Cc2c(C)noc2C)c(F)c(OC)c1` [Compound 179], the IC50 on FGFR3 (h) was 1.26 nM; at KDR (h), 12.3 nM. In test [1], the “BAF3-FGFR3 (MIN IL3) pIC50” value is listed as less than 5.52.
The like results for `COc1cc(OC)c(F)c(N(Cc2nc(CO)c[nH]2)c2ccc3ncc(-c4cnn(C)c4)nc3n2)c1` [Compound 232] were, in that order, 1.29 nM, 22.4 nM and 7.81.
On to `COc1cc(OC)c(F)c(N(Cc2ncco2)c2ccc3ncc(-c4cnn(C)c4)nc3n2)c1` [Compound 177], for which the IC50 on FGFR3 (h) is 1.07 nM; at KDR (h), 10.5 nM. Also, the “BAF3-FGFR3 (MIN IL3) pIC50” value in test [1] was determined as 7.10.
Turning to `COc1cc(OC)c(F)c(N(Cc2nccn2CCO)c2ccc3ncc(-c4cnn(C)c4)nc3n2)c1` [Compound 145], the IC50 was 4.68 nM on FGFR3 (h) and 25.7 nM on KDR (h). Moreover, in test [1], the “BAF3-FGFR3 (MIN IL3) pIC50” value worked out at 7.04.
In the case of `COc1cc(/N=c2\ccc3ncc(-c4cnn(C)c4)nc3n2CC2CCC(=O)N2)cc(OC)c1` (stereo not drawn) [Compound 248], the IC50 at FGFR3 (h) is 1.82 nM; at KDR (h), 20 nM. Further, in test [1], the “BAF3-FGFR3 (MIN IL3) pIC50” value is listed as 6.67.
As for `COc1cc(/N=c2\ccc3ncc(-c4cnn(C)c4)nc3n2CC2CCC(=O)N2CCO)c(F)c(OC)c1` (single isomer, unassigned) [Compound 219], the IC50 was 1.29 nM at FGFR3 (h) and 7.94 nM at KDR (h). Moreover, the “BAF3-FGFR3 (MIN IL3) pIC50” value in test [1] was 7.66.
Consider `COc1cc(OC)cc(N(Cc2nc(OC)cc(OC)n2)c2ccc3ncc(-c4cnn(C)c4)nc3n2)c1` [Compound 174], for which the IC50 at FGFR3 (h) is 36.3 nM; at KDR (h), 89.1 nM. Moreover, the “BAF3-FGFR3 (MIN IL3) pIC50” value in test [1] stood at 5.57.
Take `CCOCc1c[nH]c(CN(c2ccc3ncc(-c4cnn(C)c4)nc3n2)c2cc(OC)cc(OC)c2F)n1` [Compound 206]: the IC50 on FGFR3 (h) is 2.51 nM; at KDR (h), 27.5 nM. Moreover, in test [1], the “BAF3-FGFR3 (MIN IL3) pIC50” value is listed as approximately 8.12.
Turning to `COc1cc(OC)cc(N(CCO)c2ccc3ncc(-c4ccncc4)nc3n2)c1` [Compound 213], the figures for the IC50 on FGFR3 (h) and on KDR (h) were 3.8 nM and 245 nM, respectively. Moreover, the “BAF3-FGFR3 (MIN IL3) pIC50” value in test [1] is on record as approximately 6.7.
The like results for `COc1cc(OC)c(F)c(N(Cc2nc(OC)cc(OC)n2)c2ccc3ncc(-c4cnn(C)c4)nc3n2)c1` [Compound 220] were, in that order, 9.33 nM, 50.1 nM and 5.91.
The like results for `COc1cc(/N=c2\ccc3ncc(-c4cnn(C)c4)nc3n2Cc2cc(C)on2)c(F)c(OC)c1` [Compound 181] were, in that order, 1.55 nM, 6.76 nM and 8.05.
The like results for `COc1cc(/N=c2\ccc3ncc(-c4cnn(C)c4)nc3n2CCN2CCOCC2)cc(OC)c1` [Compound 147] were, in that order, 1.62 nM, 5.62 nM and 7.23.
